Data taken from the supplement of paper PMC10627819.

Legend:
Test in all cases: fitness (endpoint OD595 vs no drug) (fraction); higher = more growth
[1] = tested on: S. aureus DSM 20231
In short: (§1)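 Fitness was measured as bacterial growth in 384-well plates inoculated at OD595 0.01 (30 µl, or 55 µl for S. pneumoniae). Media were TSB, LB Lennox or CY, at 37 °C. OD595 was read every 30 min for 14 h and background-subtracted against the first reading. Fitness is OD595 at the transition into stationary phase divided by the robust mean of no-drug control wells, capped at 1.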

[2] = tested on: S. pneumoniae D39V
In short: as §1

[3] = tested on: B. subtilis 168
In short: as §1

[4] = tested on: S. aureus Newman
In short: as §1
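Also: OD595 on entry to stationary phase over no-drug wells; at most 1.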

CC(=O)Oc1ccccc1C(=O)O [Acetylsalicylic acid] + C[C@@H]1O[C@@H]1P(=O)(O)O [Fosfomycin]
fitness
Settings | first compound 250 µg/mL | first compound 500 µg/mL | first compound 1000 µg/mL
[1], partner 0.781 µg/mL | 0.621 | 0.619 | 0.51
[1], partner 1.562 µg/mL | 0.537 | 0.546 | 0.438
[1], partner 3.124 µg/mL | 0.487 | 0.452 | 0.283
[2], partner 1.25 µg/mL | 0.989 | 0.955 | 0.862
[2], partner 2.5 µg/mL | 0.939 | 0.939 | 0.82
[2], partner 5 µg/mL | 0.831 | 0.88 | 0.791

O=C(O)c1cn(C2CC2)c2cc(N3CCNCC3)c(F)cc2c1=O [Ciprofloxacin] + CC1=C(C(=O)O)N2C(=O)[C@@H](NC(=O)[C@H](N)c3ccccc3)[C@H]2SC1 [Cephalexin]
Settings | fitness
[2], first compound 0.125 µg/mL, partner 2 µg/mL | 0.0158
[2], first compound 0.125 µg/mL, partner 4 µg/mL | 0.0138
[2], first compound 0.5 µg/mL, partner 2 µg/mL | 0.0332
[2], first compound 0.5 µg/mL, partner 4 µg/mL | 0.0303
[3], first compound 0.0098 µg/mL, partner 0.125 µg/mL | 0.886
[3], first compound 0.0098 µg/mL, partner 0.25 µg/mL | 0.88
[3], first compound 0.0098 µg/mL, partner 0.5 µg/mL | 0.829
[3], first compound 0.0195 µg/mL, partner 0.125 µg/mL | 0.69
[3], first compound 0.0195 µg/mL, partner 0.25 µg/mL | 0.68
[3], first compound 0.0195 µg/mL, partner 0.5 µg/mL | 0.705
[3], first compound 0.039 µg/mL, partner 0.125 µg/mL | 0.0501
[3], first compound 0.039 µg/mL, partner 0.25 µg/mL | 0.0506
[3], first compound 0.039 µg/mL, partner 0.5 µg/mL | 0.062
[4], first compound 0.0375 µg/mL, partner 0.25 µg/mL | 0.732
[4], first compound 0.0375 µg/mL, partner 0.5 µg/mL | 0.77
[4], first compound 0.0375 µg/mL, partner 1 µg/mL | 0.753
[4], first compound 0.075 µg/mL, partner 0.25 µg/mL | 0.727
[4], first compound 0.075 µg/mL, partner 0.5 µg/mL | 0.725
[4], first compound 0.075 µg/mL, partner 1 µg/mL | 0.733

one replicate
Settings | fitness
[2], first compound 0.125 µg/mL, partner 0.125 µg/mL | ≥ 1
[2], first compound 0.125 µg/mL, partner 0.25 µg/mL | 0.996
[2], first compound 0.125 µg/mL, partner 0.5 µg/mL | 0.942
[2], first compound 0.25 µg/mL, partner 0.125 µg/mL | 0.82
[2], first compound 0.25 µg/mL, partner 0.25 µg/mL | 0.849
[2], first compound 0.25 µg/mL, partner 0.5 µg/mL | 0.886
[2], first compound 0.25 µg/mL, partner 1 µg/mL | 0.686
[2], first compound 0.25 µg/mL, partner 2 µg/mL | 0
[2], first compound 0.25 µg/mL, partner 4 µg/mL | 0
[2], first compound 0.5 µg/mL, partner 0.125 µg/mL | 0.473
[2], first compound 0.5 µg/mL, partner 0.25 µg/mL | 0.552
[2], first compound 0.5 µg/mL, partner 0.5 µg/mL | 0.583
[3], first compound 0.0098 µg/mL, partner 1 µg/mL | 0.951
[3], first compound 0.0195 µg/mL, partner 1 µg/mL | 0.75
[3], first compound 0.039 µg/mL, partner 1 µg/mL | 0.183
